The subject of data set [1] is Staphylococcus aureus. In words: Antibacterial activity against Staphylococcus aureus ATCC 29213 incubated for 18 to 24 hrs by broth microdilution method. The class given is functional. Background: In broth dilution the organism is exposed to a series of concentrations in liquid medium.
Data set [2] concerns Salmonella typhimurium. As to the kind of experiment: Antibacterial activity against Salmonella enterica serovar typhimurium C77-31 incubated for 18 to 24 hrs by broth microdilution method. The class given is functional, Salmonella enterica subsp. enterica serovar Typhimurium.
Data set [3] is described as follows: Cytotoxicity against mouse RAW264.7 cells assessed as cell survival at <= 32 uM after 24 hrs by MTT assay relative to control. The class given is cell-based. To be noted: RAW264.7 cells, up to 32 µM, read-out: Activity. On the technique in general: Formazan colour is commonly taken as a measure of viable cells.
The test system of data set [4] is Erythrocyte. As to the kind of experiment: Haemolytic activity in human erythrocytes assessed as lowest concentration causing 5% hemolysis after 1 hr. Format: ADME, cell-based.
For data set [5], the system named is Staphylococcus epidermidis. In words: Antibacterial activity against Staphylococcus epidermidis ATCC 12228 incubated for 18 to 24 hrs by broth microdilution method. The class given is functional.
In data set [6] the test system is Escherichia coli. As to the kind of experiment: Antibacterial activity against Escherichia coli ATCC 25922 incubated for 18 to 24 hrs by broth microdilution method. The class given is functional.
The test system of data set [7] is Escherichia coli. In words: Antibacterial activity against Escherichia coli UB1005 incubated for 18 to 24 hrs by broth microdilution method. The class given is functional.
The nature of data set [8]: Therapeutic index, ratio of MHC for human RBC to geometric mean of peptide MIC for Escherichia coli ATCC 25922. The class given is toxicity. To be noted: pooled result: one value given for 6 cell lines, strains, targets or settings, read-out: TI.
Data set [9] relates to Staphylococcus aureus. In words: Antibacterial activity against Staphylococcus aureus ATCC 25923 incubated for 18 to 24 hrs by broth microdilution method. The class given is functional.
In data set [10] the test system is Acinetobacter baumannii. As to the kind of experiment: Antibacterial activity against Acinetobacter baumannii AB1901 clinical isolate incubated for 18 to 24 hrs by broth microdilution method. The class given is functional.
Data set [11] relates to Escherichia coli. In words: Antibacterial activity against Escherichia coli 20411 clinical isolate incubated for 18 to 24 hrs by broth microdilution method. The class given is functional.
Data set [12] concerns Pseudomonas aeruginosa. As to the kind of experiment: Antibacterial activity against Pseudomonas aeruginosa 25349 clinical isolate incubated for 18 to 24 hrs by broth microdilution method. Format: functional.
A short description of data set [13]: Resistance index, ratio of MIC for antibacterial activity against ciprofloxacin-resistant Escherichia coli to MIC for Escherichia coli ATCC 25922 incubated for 18 to 24 hrs by broth microdilution method. The class given is functional.
Data set [14] deals with Staphylococcus aureus. In words: Antibacterial activity against Staphylococcus aureus 11011 incubated for 18 to 24 hrs by broth microdilution method. Format: functional.
Data set [15] relates to Acinetobacter baumannii. In words: Antibacterial activity against Acinetobacter baumannii AB1902 clinical isolate incubated for 18 to 24 hrs by broth microdilution method. The class given is functional.
Data set [16] concerns Escherichia coli. As to the kind of experiment: Antibacterial activity against ciprofloxacin-resistant Escherichia coli ATCC 25922 incubated for 18 to 24 hrs. The class given is functional.

≈ marks a conversion by molar mass, not a printed value. Where a SMILES comes first, the peptide text is derived from it.

Broadly, the MIC is the least concentration at which growth counts as inhibited. The low end stands for inhibition by little substance, the high end for a need for much substance.

`CC(C)C[C@H](NC(=O)[C@H](CCCNC(=N)N)NC(=O)[C@H](Cc1c[nH]c2ccccc12)NC(=O)[C@H](CCCNC(=N)N)NC(=O)[C@@H](NC(=O)[C@H](Cc1c[nH]c2ccccc12)NC(=O)[C@H](Cc1c[nH]c2ccccc12)NC(=O)[C@H](CCCNC(=N)N)NC(=O)[C@H](CC(C)C)NC(=O)[C@H](CCCNC(=N)N)NC(=O)[C@@H](N)CCCNC(=N)N)[C@@H](C)O)C(=O)N[C@@H](CCCCN)C(N)=O` (H-RRLRWWTRWRLK-NH2): the MIC in [1] was determined as 4 µM (≈ 7.25 µg/mL); in data set [2], 8 µM (≈ 14.5 µg/mL); in [5] it was 8 µM (≈ 14.5 µg/mL); in [6] it was 4 µM (≈ 7.25 µg/mL); in data set [7], 4 µM (≈ 7.25 µg/mL); in data set [9], 8 µM (≈ 14.5 µg/mL). Also, the viability at 24 h in [3] was at least 70%. The MHC in data set [4] was above 128 µM. Moreover, the selectivity ratio in [8] was 45.2.
As to `CC(C)C[C@H](NC(=O)[C@H](CCCNC(=N)N)NC(=O)[C@H](CCCCN)NC(=O)[C@H](Cc1c[nH]c2ccccc12)NC(=O)[C@@H](NC(=O)[C@H](CCCCN)NC(=O)[C@H](CCCCN)NC(=O)[C@H](Cc1c[nH]c2ccccc12)NC(=O)[C@H](CC(C)C)NC(=O)[C@H](CCCNC(=N)N)NC(=O)[C@@H](N)CCCNC(=N)N)[C@@H](C)O)C(=O)N[C@@H](Cc1c[nH]c2ccccc12)C(N)=O` (H-RRLWKKTWKRLW-NH2), the MIC is 8 µM (≈ 14 µg/mL) in data set [1]; 8 µM (≈ 14 µg/mL) in data set [2]; 8 µM (≈ 14 µg/mL) in data set [5]; 4 µM (≈ 7.02 µg/mL) in [6]; 4 µM (≈ 7.02 µg/mL) in data set [7]; 16 µM (≈ 28.1 µg/mL) in data set [9]. Also, the viability at 24 h in [3] was at least 70%. In [4], the MHC is above 128 µM. Besides, the selectivity ratio in data set [8] is 35.9.
Turning to `CC(C)C[C@H](NC(=O)[C@H](CCCNC(=N)N)NC(=O)[C@H](CCCCN)NC(=O)[C@H](CCCNC(=N)N)NC(=O)[C@@H](NC(=O)[C@H](Cc1c[nH]c2ccccc12)NC(=O)[C@H](CCCCN)NC(=O)[C@H](CCCNC(=N)N)NC(=O)[C@H](CC(C)C)NC(=O)[C@H](Cc1c[nH]c2ccccc12)NC(=O)[C@@H](N)CCCNC(=N)N)[C@@H](C)O)C(=O)N[C@@H](CCCCN)C(N)=O` (H-RWLRKWTRKRLK-NH2), the MIC in [1] came to 64 µM (≈ 110 µg/mL); in data set [2], 64 µM (≈ 110 µg/mL); in [5] it was 16 µM (≈ 27.6 µg/mL); in [6] it was 16 µM (≈ 27.6 µg/mL); in data set [7], 16 µM (≈ 27.6 µg/mL); in data set [9], 32 µM (≈ 55.2 µg/mL). For the same molecule, the viability at 24 h in data set [3] was at least 70%. For the same molecule, the MHC in data set [4] was above 128 µM. For the same molecule, the selectivity ratio in data set [8] was found to be 8.98.
Turning to `CC(C)C[C@H](NC(=O)[C@H](CCCNC(=N)N)NC(=O)[C@H](Cc1c[nH]c2ccccc12)NC(=O)[C@H](CCCNC(=N)N)NC(=O)[C@@H](NC(=O)[C@H](CCCCN)NC(=O)[C@H](Cc1c[nH]c2ccccc12)NC(=O)[C@H](CCCNC(=N)N)NC(=O)[C@H](CC(C)C)NC(=O)[C@H](Cc1c[nH]c2ccccc12)NC(=O)[C@@H](N)CCCNC(=N)N)[C@@H](C)O)C(=O)N[C@@H](CCCCN)C(N)=O` (H-RWLRWKTRWRLK-NH2), the MIC in data set [1] stood at 4 µM (≈ 7.14 µg/mL); in [2] it was 8 µM (≈ 14.3 µg/mL); in data set [5], 16 µM (≈ 28.5 µg/mL); in [6], 2 µM (≈ 3.57 µg/mL); in data set [7], 4 µM (≈ 7.14 µg/mL); in data set [9], 16 µM (≈ 28.5 µg/mL). In [3], the viability at 24 h is at least 70%. Besides, the MHC in data set [4] is above 128 µM. Besides, the selectivity ratio in [8] worked out at 40.3.
For `CC(C)C[C@H](NC(=O)[C@H](CCCNC(=N)N)NC(=O)[C@@H](NC(=O)[C@H](CCCNC(=N)N)NC(=O)[C@@H](NC(=O)[C@H](CCCCN)NC(=O)[C@@H](NC(=O)[C@H](CCCNC(=N)N)NC(=O)[C@H](CC(C)C)NC(=O)[C@H](CCCNC(=N)N)NC(=O)[C@@H](N)C(C)C)C(C)C)[C@@H](C)O)C(C)C)C(=O)N[C@@H](CCCCN)C(N)=O` (H-VRLRVKTRVRLK-NH2), the MIC in data set [1] was found to be 16 µM (≈ 24.4 µg/mL); in data set [2], 16 µM (≈ 24.4 µg/mL); in [5], 32 µM (≈ 48.7 µg/mL); in data set [6] it was 4 µM (≈ 6.09 µg/mL); in [7], 4 µM (≈ 6.09 µg/mL); in data set [9] it was 64 µM (≈ 97.5 µg/mL). The viability at 24 h in [3] was at least 70%. Also, in data set [4], the MHC is above 128 µM. Also, the selectivity ratio in data set [8] was 18.
With `CC(C)(O/N=C(\C(=O)N[C@@H]1C(=O)N2C(C(=O)[O-])=C(C[n+]3ccccc3)CS[C@H]12)c1csc(N)n1)C(=O)O` [CEFTAZIDIME], the MIC is 16 µM (≈ 8.75 µg/mL) in data set [1]; 0.5 µM (≈ 0.273 µg/mL) in data set [2]; above 128 µM in data set [10]; 0.25 µM (≈ 0.137 µg/mL) in [11]; 32 µM (≈ 17.5 µg/mL) in [12]; 16 µM (≈ 8.75 µg/mL) in data set [5]. The MIC is 0.5 µM (≈ 0.273 µg/mL) in [6]; 16 µM (≈ 8.75 µg/mL) in [14]; above 128 µM in data set [15]; 16 µM (≈ 8.75 µg/mL) in data set [16]; 0.25 µM (≈ 0.137 µg/mL) in [7]; 32 µM (≈ 17.5 µg/mL) in data set [9]. Besides, the Ratio in data set [13] is listed as 32.
As to `CN(C)c1ccc(O)c2c1C[C@H]1C[C@H]3[C@H](N(C)C)C(O)=C(C(N)=O)C(=O)[C@@]3(O)C(O)=C1C2=O` [MINOCYCLINE], the MIC turned out to be 0.25 µM (≈ 0.114 µg/mL) in data set [1]; 8 µM (≈ 3.66 µg/mL) in data set [2]; 0.25 µM (≈ 0.114 µg/mL) in data set [10]; 2 µM (≈ 0.915 µg/mL) in data set [11]; 8 µM (≈ 3.66 µg/mL) in data set [12]; 0.25 µM (≈ 0.114 µg/mL) in data set [5]. Further, the MIC in [6] was 1 µM (≈ 0.457 µg/mL); in data set [14] it was 0.25 µM (≈ 0.114 µg/mL); in [15], 0.25 µM (≈ 0.114 µg/mL); in data set [16], 64 µM (≈ 29.3 µg/mL); in data set [7], 4 µM (≈ 1.83 µg/mL); in [9], 0.25 µM (≈ 0.114 µg/mL). Further, the Ratio in data set [13] is 64.
With `CCn1cc(C(=O)O)c(=O)c2cc(F)c(N3CCNCC3)cc21` [NORFLOXACIN], the MIC is 1 µM (≈ 0.319 µg/mL) in [1]; 0.25 µM (≈ 0.0798 µg/mL) in data set [2]; above 128 µM in data set [10]; 0.0625 µM (≈ 0.02 µg/mL) in data set [11]; 2 µM (≈ 0.639 µg/mL) in data set [12]; 1 µM (≈ 0.319 µg/mL) in data set [5]. The MIC was 0.125 µM (≈ 0.0399 µg/mL) in data set [6]; 2 µM (≈ 0.639 µg/mL) in data set [14]; above 128 µM in data set [15]; 1 µM (≈ 0.319 µg/mL) in data set [16]; 4 µM (≈ 1.28 µg/mL) in data set [7]; 2 µM (≈ 0.639 µg/mL) in data set [9].
With `CC1COc2c(N3CCN(C)CC3)c(F)cc3c(=O)c(C(=O)O)cn1c23` (stereo not drawn) [OFLOXACIN], the MIC was 0.5 µM (≈ 0.181 µg/mL) in data set [1]; 0.25 µM (≈ 0.0903 µg/mL) in data set [2]; 32 µM (≈ 11.6 µg/mL) in [10]; 0.125 µM (≈ 0.0452 µg/mL) in data set [11]; 4 µM (≈ 1.45 µg/mL) in data set [12]; 0.5 µM (≈ 0.181 µg/mL) in data set [5]. In addition, the MIC in data set [6] was 0.125 µM (≈ 0.0452 µg/mL); in data set [14] it was 1 µM (≈ 0.361 µg/mL); in data set [15], 32 µM (≈ 11.6 µg/mL); in [16], 0.5 µM (≈ 0.181 µg/mL); in data set [7], 0.5 µM (≈ 0.181 µg/mL); in [9], 1 µM (≈ 0.361 µg/mL). In addition, the Ratio in data set [13] came to 4.
Turning to `CO[C@H]1/C=C/O[C@@]2(C)Oc3c(C)c(O)c4c(O)c(c(/C=N/N5CCN(C)CC5)c(O)c4c3C2=O)NC(=O)/C(C)=C\C=C\[C@H](C)[C@H](O)[C@@H](C)[C@@H](O)[C@@H](C)[C@H](OC(C)=O)[C@@H]1C` [RIFAMPIN], the MIC in data set [1] is 0.25 µM (≈ 0.206 µg/mL); in [2] it was 4 µM (≈ 3.29 µg/mL); in [10], 1 µM (≈ 0.823 µg/mL); in data set [11], 4 µM (≈ 3.29 µg/mL); in data set [12] it was 16 µM (≈ 13.2 µg/mL); in [5], 0.25 µM (≈ 0.206 µg/mL). In addition, the MIC in data set [6] came out at 4 µM (≈ 3.29 µg/mL); in [15] it was 1 µM (≈ 0.823 µg/mL); in [16], 8 µM (≈ 6.58 µg/mL); in data set [7] it was 8 µM (≈ 6.58 µg/mL); in [9], 0.25 µM (≈ 0.206 µg/mL). For the same molecule, in data set [13], the Ratio was 2.
